Some test systems named below: SR leukemia; SNB-19 CNS; SNB-75 CNS; 786-0 renal; UACC-62 melanoma; HS 578T breast; K-562 leukemia; MALME-3M melanoma; OVCAR-4 ovarian; NCI-H522 lung.
Holding throughout (test): NCI anticancer screen, dose series, 48 h

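Values below derive from 48-hour exposures of cells grown in 96-well plates, with endpoints linearly interpolated between the two concentrations bracketing the appropriate inhibition level. The concentration for 50% growth inhibition is given as GI50. Definition used: TGI = concentration required for complete inhibition of growth.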

Regarding `CN(CCC#N)c1ccc(/C=C(\C#N)c2cccc(C(F)(F)F)c2)cc1`, the GI50 in the test on SR leukemia was 2520 nM; in the test on SNB-19 CNS, 17 µM; in the test on SNB-75 CNS it was 4470 nM; in the test on 786-0 renal, 4150 nM; in the test with UACC-62 melanoma it was 3.96 µM; with HS 578T breast, 4.3 µM. Besides, the GI50 in the test on K-562 leukemia was 2690 nM; in the test on MALME-3M melanoma, 3590 nM; in the test on OVCAR-4 ovarian, 4710 nM. The TGI in the test with SR leukemia, with SNB-19 CNS, with SNB-75 CNS, with 786-0 renal, in the test with UACC-62 melanoma and in the test with HS 578T breast was greater than 100 µM each time. Besides, the TGI in the test with K-562 leukemia, in the test with MALME-3M melanoma and with OVCAR-4 ovarian was greater than 100 µM throughout.
On to `C=C1C(=O)O[C@H]2[C@H]1CC/C(Cn1cc(CNCCc3c[nH]c4ccc(Cl)cc34)nn1)=C\CC[C@@]1(C)O[C@@H]21`, for which the GI50 is 3010 nM with SR leukemia; 1580 nM with NCI-H522 lung; 8.69 µM in the test with SNB-19 CNS; 4880 nM in the test on SNB-75 CNS; 2890 nM in the test with 786-0 renal; 4.65 µM in the test on UACC-62 melanoma. Further, the GI50 was 11.1 µM with HS 578T breast, 2910 nM with K-562 leukemia, 2400 nM in the test with MALME-3M melanoma and 5230 nM with OVCAR-4 ovarian. Further, the TGI with SR leukemia stood at 9.66 µM; with NCI-H522 lung, 3.12 µM; in the test on SNB-19 CNS it was 32.4 µM; in the test with SNB-75 CNS, 17.9 µM; with 786-0 renal, 10.2 µM; in the test with UACC-62 melanoma, 16.9 µM. In addition, the TGI in the test with HS 578T breast stood at 53.1 µM; with K-562 leukemia, 25.2 µM; in the test on MALME-3M melanoma, 6.61 µM; in the test on OVCAR-4 ovarian, 19.7 µM.
Take `CCN(CC)C(=O)CC1=C(C)/C(=C/c2[nH]c(-c3ccc[nH]3)cc2OC)N=C1C`: the GI50 in the test on SR leukemia was 289 nM; in the test with NCI-H522 lung, 456 nM; in the test with SNB-19 CNS, 4.1 µM; in the test on SNB-75 CNS, 307 nM; with 786-0 renal it was 549 nM; in the test with HS 578T breast, 0.656 µM. The GI50 in the test with MALME-3M melanoma was 982 nM; in the test with OVCAR-4 ovarian it was 409 nM. Also, the TGI is 0.994 µM in the test on SR leukemia; 14 µM with NCI-H522 lung; greater than 100 µM in the test on SNB-19 CNS; 3.35 µM in the test with SNB-75 CNS; 3.36 µM with 786-0 renal; 7.97 µM in the test with HS 578T breast. Besides, the TGI with MALME-3M melanoma is 9.05 µM; in the test on OVCAR-4 ovarian it was greater than 100 µM.
For `O=[N+]([O-])c1cc([N+](=O)[O-])c(Cl)c(Cl)c1Cl`, the GI50 with SR leukemia was 639 nM; with NCI-H522 lung, 230 nM; in the test with SNB-19 CNS, 3.36 µM; in the test on SNB-75 CNS, 1540 nM; with 786-0 renal, 804 nM; in the test with UACC-62 melanoma, 1.31 µM. Besides, the GI50 was 2.26 µM in the test on HS 578T breast, 725 nM in the test on K-562 leukemia, 1700 nM in the test with MALME-3M melanoma and 1780 nM with OVCAR-4 ovarian. Moreover, the TGI in the test with SR leukemia was found to be 5.86 µM; in the test with NCI-H522 lung it was 0.605 µM; in the test with SNB-19 CNS, 12 µM; in the test on SNB-75 CNS it was 2.95 µM; in the test with 786-0 renal, 2.09 µM; in the test with UACC-62 melanoma, 2.64 µM. Also, the TGI was 5.31 µM in the test with HS 578T breast, 10.9 µM with K-562 leukemia, 3.77 µM with MALME-3M melanoma and 3.16 µM with OVCAR-4 ovarian.
In the case of `CC(C)(C)[Si](C)(C)OCC1CCC(n2cnc3c(=O)[nH]cnc32)O1` (centres undefined), the TGI with SR leukemia was greater than 100 µM; with NCI-H522 lung, greater than 100 µM; with SNB-19 CNS, greater than 100 µM; with SNB-75 CNS, 99.8 µM; with 786-0 renal, greater than 100 µM; in the test on UACC-62 melanoma, greater than 100 µM. The TGI in the test on HS 578T breast, with K-562 leukemia, in the test with MALME-3M melanoma and in the test with OVCAR-4 ovarian was greater than 100 µM in each case.
As for `COc1cccc(C(=O)Nc2ccc(CN3CCc4nc5cc(OC)c(OC)cc5cc43)cc2)c1`, the GI50 with SR leukemia was 3070 nM; in the test with NCI-H522 lung it was 3940 nM; in the test with SNB-19 CNS it was 8.12 µM; with SNB-75 CNS it was 2660 nM; in the test on 786-0 renal it was 3020 nM; in the test with UACC-62 melanoma it was 7.13 µM. The GI50 with HS 578T breast is 3.87 µM; with K-562 leukemia, 3720 nM; in the test with MALME-3M melanoma, 4910 nM; in the test with OVCAR-4 ovarian, 3320 nM. Further, the TGI was 9.64 µM in the test on SR leukemia; 18.3 µM in the test on NCI-H522 lung; greater than 100 µM with SNB-19 CNS; greater than 100 µM with SNB-75 CNS; 9.71 µM with 786-0 renal; 21.3 µM in the test on UACC-62 melanoma. Besides, the TGI with HS 578T breast is 34 µM; with K-562 leukemia, 15.5 µM; in the test with MALME-3M melanoma it was 27.6 µM; with OVCAR-4 ovarian it was greater than 100 µM.
Turning to `O=C1c2ccccc2NC(c2cc(Cl)cc(Cl)c2O)N1CCc1ccccn1` (centres undefined), the TGI in the test on SR leukemia, in the test on NCI-H522 lung, in the test with SNB-19 CNS, with SNB-75 CNS, in the test on 786-0 renal and in the test with UACC-62 melanoma was greater than 100 µM in each case. The TGI in the test on HS 578T breast was greater than 100 µM; in the test on K-562 leukemia, greater than 100 µM; with MALME-3M melanoma, greater than 100 µM; in the test on OVCAR-4 ovarian, 98.9 µM.
In the case of `Cc1c(C)c2c(c(C)c1NC(=O)/C=C\C(=O)O)CCC(C)(CCCC(C)CCCC(C)CCCC(C)C)O2` (centres undefined), the GI50 in the test on SR leukemia was 1610 nM; in the test on NCI-H522 lung, 2230 nM; in the test with SNB-19 CNS it was 1.94 µM; in the test with SNB-75 CNS, 1310 nM; in the test with 786-0 renal it was 1690 nM; with UACC-62 melanoma, 1.8 µM. Moreover, the GI50 in the test on HS 578T breast was 1.89 µM; in the test with K-562 leukemia, 2300 nM; in the test with MALME-3M melanoma, 1700 nM; in the test on OVCAR-4 ovarian it was 2520 nM. Besides, the TGI in the test on SR leukemia was found to be 4.63 µM; in the test with NCI-H522 lung, 4.94 µM; with SNB-19 CNS, 3.47 µM; with SNB-75 CNS, 2.58 µM; with 786-0 renal, 3.06 µM; with UACC-62 melanoma, 3.22 µM. Also, the TGI with HS 578T breast was 4.97 µM; in the test on K-562 leukemia, 7.16 µM; in the test on MALME-3M melanoma it was 3.16 µM; with OVCAR-4 ovarian it was 5.16 µM.
